In patent US20130123287A1, “CONTROL AGENT FOR SOFT ROT AND CONTROL METHOD FOR THE SAME” (ISHIHARA SANGYO KAISHA, LTD., priority 2010, published 2013):

Tests used:
[1] = system: soft rot of Chinese cabbage; assay: Test for controlling soft rot of Chinese cabbage, Example 2 / Comparative Example 2 (field, cultivar Harebutai 65); assay type: in vivo; conditions: 150 L/10 a sprayed onto planting holes before planting, 64 days after start
From the text: Frequency of the disease=[sigma(number of plants with the onset of the disease at each severity level*index of the onset of the disease)/(plants examined*4)]*100
Disease control value=[1-(frequency of the disease in the treated lot/frequency of the disease in the non-treated lot)]*100
• 0: No onset • 1: Onset in some of outer leaves (shippable) • 2: Onset in outer leaves and some of head leaves (by removing damaged parts, the resulting cabbage can be shipped as small cabbage but is ranked as grade B). • 3: Most of head leaves are inflicted with the onset of the disease or with severer damages (not shippable) • 4: Whole cabbage plant is inflicted with the onset of the disease and is dead.
200 g/l Azoxystrobin (Amistar 20 FLOWABLE [trade name], manufactured by Syngenta Japan K.K.) was adjusted to 500 g ai/10a (0.5 g/m^2, 2500 ml Product/10a) as the amount of the active ingredient and to 150 L/10a as the volume of diluent water.
30% w/w triflumizol (TRIFUMIN WP [trade name], manufactured by Nippon Soda Co., Ltd.) was adjusted to 500 g ai/10a (0.5 g/m^2, 1667 g Product/10a) as the amount of the active ingredient and to 150 L/10a as the volume of diluent water.
100 g/1 cyazofamid (RANMAN PLOWABLE [trade name], manufactured by Ishihara Sangyo Kaisha, Ltd.) was adjusted to 500 g ai/10a (0.5 g/m^2, 5000 ml Product/10a) as the amount of the active ingredient and to 150 L/10a as the volume of diluent water.
50% w/w penthiopyrad (GAIA WG [trade name], manufactured by Mitsui Chemicals Agro, Inc.) was adjusted to 500 g ai/10a (0.5 g/m^2, 1000 g Product/10a) as the amount of the active ingredient and to 150 L/10a as the volume of diluent water.
50 g/l flusulfamide (SCABLOCK SC [trade name], manufactured by Mitsui Chemicals Agro, Inc.) was adjusted to 500 g ai/10a (0.5 g/m^2, 10000 ml Product/10a) as the amount of the active ingredient and to 150 L/10a as the volume of diluent water.
400 g/1 chlorothalonil (Daconil 1000 [the trade name], manufactured by Sumitomo Chemical, Limited) was adjusted to 1000 g ai/10a (1.0 g/m^2, 2500 ml Product/10a) as the amount of the active ingredient and to 150 L/10a as the volume of diluent water.
(§1) After spreading an agricultural mulch-sheet and opening planting holes (diameter of about 5 cm) for permanent planting through the mulch-sheet, the spray solutions prepared as described above were sprayed onto the planting holes such that the amount of treated active ingredient of chlorothalonil was 1.0 g/m^2 (150 L per 10a) and the amount of each of the remaining spray solutions was 0.5 g/m^2 (150 L per 10a), followed by air-drying; subsequently, seedlings of Chinese cabbage (cultivar Harebutai 65) grown for 4 weeks in cell mold trays (128 holes/nursery box) were planted such that 19 seedlings were planted in each test lot having an area of 2.4 m^2 with two replications.
(§2) Preparation was performed by diluting streptomycin (Mycin 20 wettable powder solution [under the trade name] manufactured by Hokko Chemical Industry Co., Ltd.) with water to 1/1000.
(§3) In a field spread with the agricultural mulch-sheet, Chinese cabbage seedlings (cultivar: Harebutai 65) grown by the same method as in Example 2 were planted by the same method as in Example 2, for spraying the spray solution of streptomycin prepared above in (1) (at each spray volume of 300 L/10a) twice (27 days and 48 days after the planting of the seedlings) on the stems and leaves with a sprayer.
64 days after the start of the tests, all the plants in each lot were examined about the severity level of the disease to assess the frequency of the disease and the disease control value. In the same manner as described above, the frequency of the disease and the disease control value were determined. Additionally, soft rot is a disease with damages hardly controlled, so even a chemical at the level C determined by the tests of the effects can practically be used.

[2] = system: bacteria causing the soft rot (Erwinia carotovora); assay: Inhibition test of growth of bacteria causing soft rot, Reference Test Example 2; assay type: cell-based; conditions: for formed colonies (growth state), grade: PSA medium, 27 degrees Celsius, 2 days; for inhibition of growth of Erwinia carotovora (in words): active ingredient concentration of 1,000 ppm
From the text: (§4) Inhibition test of growth of bacteria causing soft rot of potato An inhibition test of the growth of bacteria causing the soft rot was done, when a control agent was directly applied to the bacteria causing the soft rot. A given volume of each pesticide of azoxystrobin (Amistar-20 FLOWABLE [trade name], manufactured by Syngenta Japan K.K.), penthiopyrad (GAIA WG [trade name], manufactured by Mitsui Chemicals Agro, Inc.), flusulfamide (SCABLOCK SC [trade name] manufactured by Mitsui Chemicals Agro, Inc.), and streptomycin (Mycin Wettable powder [trade name] manufactured by Hokko Chemical Industry Co., Ltd.) was added together with a suspension of the bacteria causing the soft rot (Erwinia carotovora) to a preliminarily dissolved PSA culture medium (55 degrees Celsius) for subsequent thorough agitation, which was then spread on a plate for culturing at 27 degrees Celsius for 2 days, to examine the growth state. Subsequently, the formed colonies were examined according to the following three grades. • +: at the same level as the level of non-treated lot.
(§5) Plus or minus: apparently less than the colonies of the non-treated lot. • −: almost no colonies observed.

[3] = system: soft rot of Chinese cabbage; assay: Test for controlling soft rot of Chinese cabbage, Example 1 / Comparative Example 1 (field, cultivar Muso); assay type: in vivo; conditions: 250 g ai/10 a, 150 L/10 a sprayed onto planting holes before planting, 54 days after start
Procedure: 200 g/l Azoxystrobin (Amistar 20 FLOWABLE [trade name], manufactured by Syngenta Japan K.K.) was adjusted to 250 g ai/10a (0.25 g/m^2, 1250 ml Product/10a) as the amount of the active ingredient and to 150 L/10a as the volume of diluent water.
100 g/l Cyazofamid (RANMAN FLOWABLE [trade name], manufactured by Ishihara Sangyo Kaisha, Ltd.) was adjusted to 250 g ai/10a (0.25 g/m^2, 2500 ml Product/10a) as the amount of the active ingredient and to 150 L/10a as the volume of diluent water.
177 g/l Amisulbrom (LEIMAY FLOWABLE [trade name], manufactured by Nissan Chemical Industries, Ltd.) was adjusted individually to 250 g ai/10a (0.25 g/m^2, 1412 ml Product/10a) as the amount of the active ingredient and to 150 L/10a as the volume of diluent water.
as §1, with “about 9” for “about 5”, “of each spray solution” for “of chlorothalonil”, “was 0.25” for “was 1.0 g/m^2 (150 L per 10a) and the amount of each of the remaining spray solutions was 0.5”, “cabbage (cultivar: Muso)” for “cabbage (cultivar Harebutai 65)”, “that 30” for “that 19”, “of 6” for “of 2.4”
as §2
as §3, with “Muso)” for “Harebutai 65)”, “1” for “2”, “1,” for “2,”, “three times (13 days, 20” for “twice (27”, “27” for “48”, “leaves.” for “leaves with a sprayer.”
54 days after the start of the tests, all the plants in each lot were examined about the severity level of the disease; according to the following equations, the ratio of the plants with the onset of the disease, the frequency of the disease, and the disease control value were calculated to determine and rank the effects at A to D levels. Because soft rot is a disease with damages hardly controlled, herein, even a chemical at the level C determined by the tests of the effects can practically be used.
Ratio of the plants with the onset of the disease=(Number of plants with the onset of the disease/number of plants examined)*100
Frequency of the disease=[sigma(number of plants with the onset of the disease at each severity level*index of the onset of the disease)/(plants examined*4)]*100 […]

[4] = system: bacteria causing the soft rot (Erwinia carotovora); assay: Inhibition test of growth of bacteria causing soft rot, Reference Test Example 1; assay type: cell-based; conditions: for formed colonies (growth state), grade: PSA medium, 25 degrees Celsius, 4 days
Procedure: as §4, with “An” for “Inhibition test of growth of bacteria causing soft rot of potato An”, “cyazofamid (RANMAN 400SC [trade name] manufactured by Ishihara Sangyo Kaisha, Ltd.), amisulbrom (LEIMAY” for “azoxystrobin (Amistar-20”, “Nissan Chemical Industries, Ltd.)” for “Syngenta Japan K.K.), penthiopyrad (GAIA WG [trade name], manufactured by Mitsui Chemicals Agro, Inc.), flusulfamide (SCABLOCK SC [trade name] manufactured by Mitsui Chemicals Agro, Inc.),”, “25” for “27”, “4” for “2”
as §5

[5] = system: bacteria causing the soft rot (Erwinia carotovora); assay: Inhibition test of growth of bacteria causing soft rot, Reference Test Example 3; assay type: cell-based; conditions: for formed colonies (growth state), grade: PSA medium, 27 degrees Celsius, 2 days; for inhibition of growth of Erwinia carotovora (in words): active ingredient concentration of 1,000 ppm
From the text: as §4, with “triflumizol (TRIFUMIN WP [trade name] manufactured by Nippon Soda Co., Ltd.), chlorothalonil (Daconil 1000” for “azoxystrobin (Amistar-20 FLOWABLE”, “Sumitomo Chemical Company, Limited)” for “Syngenta Japan K.K.), penthiopyrad (GAIA WG [trade name], manufactured by Mitsui Chemicals Agro, Inc.), flusulfamide (SCABLOCK SC [trade name] manufactured by Mitsui Chemicals Agro, Inc.),”, “lot. Plus or minus: apparently less than the colonies of the non-treated lot. • −: almost no colonies observed.” for “lot.”

| Compound | Determination of effect ([1]; 500 g ai/10 a) | formed colonies (growth state), grade ([2]; 100 ppm active ingredient) | formed colonies (growth state), grade ([2]; 500 ppm active ingredient) | formed colonies (growth state), grade ([2]; 1000 ppm active ingredient) | inhibition of growth of Erwinia carotovora (in words) [2] | Determination of effect [3] | formed colonies (growth state), grade ([5]; 100 ppm active ingredient) | formed colonies (growth state), grade ([5]; 500 ppm active ingredient) | formed colonies (growth state), grade ([5]; 1000 ppm active ingredient) | inhibition of growth of Erwinia carotovora (in words) [5] | further results |
| --- | --- | --- | --- | --- | --- | --- | --- | --- | --- | --- | --- |
| CC(C)CC(C)c1sccc1NC(=O)c1cn(C)nc1C(F)(F)F (racemic) [Penthiopyrad, (RS)-N-[2-(1,3-dimethylbutyl)-3-thienyl]-1-methyl-3-(trifluoromethyl)-1H-pyrazole-4-carboxamide] | C (C: Effective at low level (21 to 40 disease control value)) | +, + | +, + | +, + | never inhibited the growth |  |  |  |  |  |  |
| Cc1c(Br)c2ccc(F)cc2n1S(=O)(=O)c1ncn(S(=O)(=O)N(C)C)n1 [Amisulbrom, 3-[(3-bromo-6-fluoro-2-methyl-1H-indol-1-yl)sulfonyl]-N,N-dimethyl-1H-1,2,4-triazole-1-sulfoneamide] |  |  |  |  |  | C (C: Effective at low level (21 to 40 disease control value)) |  |  |  |  | formed colonies (growth state), grade ([4]; 100 ppm active ingredient): +, +; formed colonies (growth state), grade ([4]; 500 ppm active ingredient): +, +; formed colonies (growth state), grade ([4]; 1000 ppm active ingredient): +, +; inhibition of growth of Erwinia carotovora (in words) ([4]; active ingredient concentration of 1,000 ppm): never inhibited the growth |
| CO/C=C(/C(=O)OC)c1ccccc1Oc1cc(Oc2ccccc2C#N)ncn1 [Azoxystrobin, methyl=(E)-2-{2-[6-(2-cyanophenoxy)pyrimidin-4-yloxy]phenyl}-3-methoxyacrylate] | B (B: Effective (41 to 60 disease control value)) | +, + | +, + | +, + | never inhibited the growth | C (C: Effective at low level (21 to 40 disease control value)) |  |  |  |  |  |
| N#Cc1c(Cl)c(Cl)c(Cl)c(C#N)c1Cl [Chlorothalonil, 2,4,5,6-tetrachloro-1,3-benzene dicarbonitrile] |  |  |  |  |  |  | +, + | +, + | +, + | never inhibited the growth | Determination of effect ([1]; 1000 g ai/10 a): B (B: Effective (41 to 60 disease control value)) |
| O=[N+]([O-])c1ccc(NS(=O)(=O)c2ccc(Cl)c(C(F)(F)F)c2)c(Cl)c1 [Flusulfamide, 2′, 4-dichloro-alpha,alpha,alpha-trifluoro-4′-nitro-m-toluenesulfone anilide] | B (B: Effective (41 to 60 disease control value)) | +, + | +, + | +, + | never inhibited the growth |  |  |  |  |  |  |
| CCCOC/C(=N\c1ccc(Cl)cc1C(F)(F)F)n1ccnc1 [Triflumizol, (E)-4-chloro-alpha,alpha,alpha-trifluoro-N-[1-imidazol-1-yl-2-propoxyethylidene]-o-to luidine] | C (C: Effective at low level (21 to 40 disease control value)) |  |  |  |  |  | +, + | +, + | +, + | never inhibited the growth |  |
